Measured values: ChEMBL document CHEMBL1909046, “DrugMatrix in vitro pharmacology data”

Tests used:
[1] = DRUGMATRIX: beta-Lactamase enzyme inhibition (substrate: Nitrocefin); set-up: species or system Bacillus cereus; details: Not Active = under 50% inhibition at 10 µM
[2] = biological target: T1, 5-hydroxytryptamine receptor 1A (Rattus norvegicus, UniProt P19327); format: cell membranes, CHO-K1, Membrane; details: cho-k1; also: in other assays of this panel Not Active means under 50% inhibition at 10 µM
T1 sequence (P19327 whole entry): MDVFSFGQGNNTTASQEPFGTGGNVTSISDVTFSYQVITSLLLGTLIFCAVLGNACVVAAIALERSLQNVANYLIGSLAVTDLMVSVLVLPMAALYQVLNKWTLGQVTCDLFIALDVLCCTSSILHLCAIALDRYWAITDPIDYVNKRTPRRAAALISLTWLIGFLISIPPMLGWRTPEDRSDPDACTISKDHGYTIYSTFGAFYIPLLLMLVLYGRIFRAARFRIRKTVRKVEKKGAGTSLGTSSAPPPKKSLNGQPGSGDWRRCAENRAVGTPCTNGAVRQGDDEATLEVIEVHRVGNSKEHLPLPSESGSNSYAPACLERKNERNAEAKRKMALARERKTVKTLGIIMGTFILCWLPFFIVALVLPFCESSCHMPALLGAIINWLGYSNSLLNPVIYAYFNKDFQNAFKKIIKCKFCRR

[3] = biological target: Voltage-gated inwardly rectifying potassium channel KCNH2 (Homo sapiens, UniProt Q12809); details: hek293; also: in other assays of this panel Not Active means under 50% inhibition at 10 µM
[4] = biological target: T2, Alpha-1B adrenergic receptor (Rattus norvegicus, UniProt P15823); test: DRUGMATRIX: Alpha-1B adrenergic receptor radioligand binding (ligand: prazosin); format: cell membranes, Wistar, Liver, Membrane; details: Not Active = under 50% inhibition at 10 µM
T2 sequence (P15823 whole entry): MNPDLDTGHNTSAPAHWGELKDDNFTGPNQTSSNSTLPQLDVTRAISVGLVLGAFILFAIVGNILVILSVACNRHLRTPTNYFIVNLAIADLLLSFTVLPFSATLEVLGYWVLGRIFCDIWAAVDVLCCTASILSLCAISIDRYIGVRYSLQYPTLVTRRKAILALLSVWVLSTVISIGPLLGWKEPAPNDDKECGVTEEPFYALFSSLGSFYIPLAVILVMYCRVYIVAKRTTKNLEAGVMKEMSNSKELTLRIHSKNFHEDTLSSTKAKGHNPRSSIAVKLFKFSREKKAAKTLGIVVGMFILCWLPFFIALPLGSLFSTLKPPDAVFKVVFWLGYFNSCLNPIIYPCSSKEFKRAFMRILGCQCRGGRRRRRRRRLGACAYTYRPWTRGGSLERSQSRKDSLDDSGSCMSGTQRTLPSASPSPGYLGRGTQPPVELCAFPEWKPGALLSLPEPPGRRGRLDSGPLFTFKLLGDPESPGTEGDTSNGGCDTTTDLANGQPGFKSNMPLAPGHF

Vasopressin V1a receptor = Vasopressin V1a receptor (Homo sapiens, UniProt P37288); format: cell membranes, Membrane; details: hek293; also: in other assays of this panel Not Active means under 50% inhibition at 10 µM
Leukotriene C4 synthase = biological target: T3, Leukotriene C4 synthase (Cavia porcellus, UniProt A6XA80); test: biochemical; format: tissue-based, Lung;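 also: enzyme inhibition assay of leukotriene C4 synthase, using LTA4 as the substrate; in other assays of this panel Not Active means under 50% inhibition at 10 µM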
T3 sequence (A6XA80 whole entry): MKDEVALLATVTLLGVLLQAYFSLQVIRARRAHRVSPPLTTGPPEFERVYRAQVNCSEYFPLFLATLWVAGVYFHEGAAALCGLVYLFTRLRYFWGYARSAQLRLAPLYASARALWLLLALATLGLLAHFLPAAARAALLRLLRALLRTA

[5] = DRUGMATRIX: GABAA, Chloride Channel, TBOB radioligand binding (ligand: [3H] TBOB); format: cell membranes, Rattus norvegicus, Wistar, Cerebral cortex, Membrane; details: Not Active = under 50% inhibition at 10 µM
[6] = DRUGMATRIX: Serotonin (5-Hydroxytryptamine) 5-HT3 radioligand binding (ligand: [3H] GR-65630); format: cell membranes, Membrane; details: hek293, Not Active = under 50% inhibition at 10 µM
[7] = DRUGMATRIX: Calcium Channel Type L, Dihydropyridine radioligand binding (ligand: [3H] Nitrendipine); format: cell membranes, Rattus norvegicus, Wistar, Cerebral cortex, Membrane; details: Not Active = under 50% inhibition at 10 µM
[8] = DRUGMATRIX: Calcium Channel Type L, Benzothiazepine radioligand binding (ligand: [3H] Diltiazem); format: cell membranes, Rattus norvegicus, Wistar, Brain, Membrane; details: Not Active = under 50% inhibition at 10 µM
[9] = DRUGMATRIX: Atrial Natriuretic Factor (ANF) radioligand binding (ligand: [125I] ANF (rat)); format: cell membranes, Cavia porcellus, Dunkin-Hartley, Adrenal gland, Membrane; details: Not Active = under 50% inhibition at 10 µM
[10] = biological target: cGMP-specific 3',5'-cyclic phosphodiesterase (Homo sapiens, UniProt O76074); test: DRUGMATRIX: Phosphodiesterase PDE5 enzyme inhibition (substrate: [3H]cGMP + cGMP); format: tissue-based, Platelet; details: platelet; Not Active = under 50% inhibition at 10 µM
[11] = biological target: T4, Alpha-2C adrenergic receptor (Homo sapiens, UniProt P18825); test: DRUGMATRIX: Adrenergic Alpha-2C radioligand binding (ligand: [3H] MK-912); format: cell membranes, Sf9, Membrane; details: sf9
T4 sequence (P18825 whole entry): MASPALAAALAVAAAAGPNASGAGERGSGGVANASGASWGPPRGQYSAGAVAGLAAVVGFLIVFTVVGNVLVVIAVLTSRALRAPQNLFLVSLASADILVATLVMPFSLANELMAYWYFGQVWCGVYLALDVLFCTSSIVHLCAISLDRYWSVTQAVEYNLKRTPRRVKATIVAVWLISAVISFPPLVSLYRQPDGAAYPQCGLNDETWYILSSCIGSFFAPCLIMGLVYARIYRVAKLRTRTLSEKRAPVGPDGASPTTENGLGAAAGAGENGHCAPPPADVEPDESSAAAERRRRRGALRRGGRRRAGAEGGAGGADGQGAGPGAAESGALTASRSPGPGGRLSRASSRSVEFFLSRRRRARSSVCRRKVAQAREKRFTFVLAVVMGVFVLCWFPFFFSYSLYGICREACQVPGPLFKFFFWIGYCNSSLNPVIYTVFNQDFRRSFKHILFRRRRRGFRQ

Cytochrome P450 3A4 = Cytochrome P450 3A4 (Homo sapiens, UniProt P08684); details: bti-tn-5b1-4; also: in other assays of this panel Not Active means under 50% inhibition at 10 µM
Acetylcholinesterase = Acetylcholinesterase (Homo sapiens, UniProt P22303); test: DRUGMATRIX: Acetylcholinesterase enzyme inhibition (substrate: acetylthiocholine); format: cell-based, HEK293; details: hek293; Not Active = under 50% inhibition at 10 µM
[12] = biological target: C-C chemokine receptor type 2 (Homo sapiens, UniProt P41597); format: cell membranes, CHO-K1, Membrane; details: cho-k1; also: in other assays of this panel Not Active means under 50% inhibition at 10 µM
Sequence of C-C chemokine receptor type 2 (P41597 whole entry): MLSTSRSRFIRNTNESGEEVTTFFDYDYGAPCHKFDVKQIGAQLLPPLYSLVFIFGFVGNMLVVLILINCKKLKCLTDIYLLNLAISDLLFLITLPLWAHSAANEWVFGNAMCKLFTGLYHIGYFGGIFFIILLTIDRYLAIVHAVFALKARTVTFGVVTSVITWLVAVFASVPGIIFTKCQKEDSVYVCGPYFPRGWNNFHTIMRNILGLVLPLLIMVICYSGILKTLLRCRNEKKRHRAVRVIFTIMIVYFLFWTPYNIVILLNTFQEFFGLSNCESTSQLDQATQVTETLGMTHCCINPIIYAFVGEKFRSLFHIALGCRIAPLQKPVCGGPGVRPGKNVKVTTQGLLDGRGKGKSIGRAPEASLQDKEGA

Sequence of Acetylcholinesterase (P22303 whole entry): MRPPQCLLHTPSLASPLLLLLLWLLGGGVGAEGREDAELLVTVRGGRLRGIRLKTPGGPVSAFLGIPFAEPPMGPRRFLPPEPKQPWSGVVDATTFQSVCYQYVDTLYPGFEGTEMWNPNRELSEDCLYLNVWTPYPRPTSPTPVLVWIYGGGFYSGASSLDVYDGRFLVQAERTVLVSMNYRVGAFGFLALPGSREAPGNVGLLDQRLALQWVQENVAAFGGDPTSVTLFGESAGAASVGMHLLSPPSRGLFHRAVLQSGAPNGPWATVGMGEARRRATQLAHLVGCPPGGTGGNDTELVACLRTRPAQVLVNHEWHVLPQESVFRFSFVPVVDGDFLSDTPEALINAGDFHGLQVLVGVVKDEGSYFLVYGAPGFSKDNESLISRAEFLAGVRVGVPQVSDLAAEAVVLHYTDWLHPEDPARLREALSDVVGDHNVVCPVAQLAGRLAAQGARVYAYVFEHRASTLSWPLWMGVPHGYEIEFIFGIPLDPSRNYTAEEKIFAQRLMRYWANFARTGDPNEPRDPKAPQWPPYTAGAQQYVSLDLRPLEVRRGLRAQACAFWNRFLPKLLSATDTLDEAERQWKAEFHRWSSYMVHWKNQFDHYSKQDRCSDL
Sequence of Cytochrome P450 3A4 (P08684 whole entry): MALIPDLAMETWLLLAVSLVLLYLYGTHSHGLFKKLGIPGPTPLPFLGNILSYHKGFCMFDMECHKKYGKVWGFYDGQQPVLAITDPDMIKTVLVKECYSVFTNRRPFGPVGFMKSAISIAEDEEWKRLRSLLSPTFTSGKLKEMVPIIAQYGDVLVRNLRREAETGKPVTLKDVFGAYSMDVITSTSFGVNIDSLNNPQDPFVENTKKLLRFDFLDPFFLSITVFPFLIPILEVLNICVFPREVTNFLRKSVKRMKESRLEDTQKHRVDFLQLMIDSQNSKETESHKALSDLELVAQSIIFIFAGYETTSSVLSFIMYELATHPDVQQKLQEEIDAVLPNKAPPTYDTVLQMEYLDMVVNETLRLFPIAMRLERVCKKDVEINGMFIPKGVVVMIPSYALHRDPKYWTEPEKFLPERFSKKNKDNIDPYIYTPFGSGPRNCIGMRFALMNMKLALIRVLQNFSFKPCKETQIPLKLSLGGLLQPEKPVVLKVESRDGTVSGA
Sequence of Vasopressin V1a receptor (P37288 whole entry): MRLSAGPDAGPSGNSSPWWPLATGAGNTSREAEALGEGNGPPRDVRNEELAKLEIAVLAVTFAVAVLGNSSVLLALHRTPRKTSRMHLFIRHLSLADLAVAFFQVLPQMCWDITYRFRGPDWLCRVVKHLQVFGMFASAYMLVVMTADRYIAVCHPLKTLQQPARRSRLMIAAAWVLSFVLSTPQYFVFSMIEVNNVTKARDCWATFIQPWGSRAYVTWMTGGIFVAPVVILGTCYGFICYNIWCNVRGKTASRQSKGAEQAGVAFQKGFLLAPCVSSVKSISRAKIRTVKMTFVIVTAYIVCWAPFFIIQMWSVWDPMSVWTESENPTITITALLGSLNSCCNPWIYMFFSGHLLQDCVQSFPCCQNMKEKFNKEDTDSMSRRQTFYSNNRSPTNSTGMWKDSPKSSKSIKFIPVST
Sequence of Voltage-gated inwardly rectifying potassium channel KCNH2 (Q12809 whole entry): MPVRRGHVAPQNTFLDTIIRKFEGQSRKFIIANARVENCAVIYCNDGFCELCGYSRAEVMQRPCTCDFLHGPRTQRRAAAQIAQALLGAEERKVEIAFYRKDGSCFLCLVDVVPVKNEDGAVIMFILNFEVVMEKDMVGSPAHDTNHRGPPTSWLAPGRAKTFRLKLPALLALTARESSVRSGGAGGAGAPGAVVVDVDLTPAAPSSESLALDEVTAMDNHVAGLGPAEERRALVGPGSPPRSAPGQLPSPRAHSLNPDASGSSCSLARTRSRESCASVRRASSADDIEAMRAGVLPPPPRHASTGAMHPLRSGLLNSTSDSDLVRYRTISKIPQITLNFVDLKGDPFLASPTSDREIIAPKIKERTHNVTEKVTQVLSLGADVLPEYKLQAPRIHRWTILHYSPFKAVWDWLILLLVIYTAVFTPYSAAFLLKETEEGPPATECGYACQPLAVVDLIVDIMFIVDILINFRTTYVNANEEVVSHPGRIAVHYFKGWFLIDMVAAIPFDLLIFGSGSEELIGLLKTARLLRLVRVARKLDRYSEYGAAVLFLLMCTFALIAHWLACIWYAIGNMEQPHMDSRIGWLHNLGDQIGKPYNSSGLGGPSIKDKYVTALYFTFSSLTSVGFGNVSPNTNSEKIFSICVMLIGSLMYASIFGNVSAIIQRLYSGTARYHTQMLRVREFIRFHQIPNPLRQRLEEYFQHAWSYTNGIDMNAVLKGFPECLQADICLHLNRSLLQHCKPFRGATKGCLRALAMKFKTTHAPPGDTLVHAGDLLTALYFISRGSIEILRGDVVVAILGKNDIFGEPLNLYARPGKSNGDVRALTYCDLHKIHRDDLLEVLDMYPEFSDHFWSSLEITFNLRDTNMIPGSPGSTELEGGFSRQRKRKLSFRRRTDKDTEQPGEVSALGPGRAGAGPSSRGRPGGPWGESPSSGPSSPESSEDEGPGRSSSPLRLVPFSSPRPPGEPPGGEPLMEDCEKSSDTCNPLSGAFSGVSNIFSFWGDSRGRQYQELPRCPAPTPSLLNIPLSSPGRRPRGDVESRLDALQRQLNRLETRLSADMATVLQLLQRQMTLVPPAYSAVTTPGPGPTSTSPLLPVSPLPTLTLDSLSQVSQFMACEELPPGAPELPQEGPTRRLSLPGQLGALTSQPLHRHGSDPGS

Structure (SMILES) | IC50 [1] | Ki [1] | IC50 [2] | IC50 [3] | Ki [3] | IC50 [4] | IC50 (Vasopressin V1a receptor) | IC50 (Leukotriene C4 synthase) | IC50 [5] | Ki [5] | IC50 [7] | Ki [7] | IC50 [8] | Ki [8] | IC50 [9] | Ki [9] | IC50 [10] | IC50 [11] | IC50 (Cytochrome P450 3A4) | Ki (Cytochrome P450 3A4) | further results
Oc1cccc2cccnc12 [OXYQUINOLINE] | Not Active | Not Active | Not Active | Not Active | Not Active | Not Active | Not Active | Not Active | Not Active | Not Active | Not Active | Not Active | Not Active | Not Active | Not Active | Not Active | Not Active | Not Active | Not Active | Not Active | IC50 [6]: Not Active; Ki [6]: Not Active; IC50 (Acetylcholinesterase): Not Active; IC50 [12]: Not Active
Cc1[nH]cnc1CN1CCc2c(c3ccccc3n2C)C1=O [ALOSETRON] | Not Active | Not Active | Not Active | Not Active | Not Active | Not Active | Not Active | Not Active | Not Active | Not Active | Not Active | Not Active | Not Active | Not Active | Not Active | Not Active | Not Active | Not Active | Not Active | Not Active | IC50 ([6]; read-out: IC50): 1.16 nM; Ki ([6]; read-out: Ki): 0.262 nM; IC50 (Acetylcholinesterase): Not Active; IC50 [12]: Not Active
CCCc1cc(=O)[nH]c(=S)[nH]1 [PROPYLTHIOURACIL] | Not Active | Not Active | Not Active | Not Active | Not Active | Not Active | Not Active | Not Active | Not Active | Not Active | Not Active | Not Active | Not Active | Not Active | Not Active | Not Active | Not Active | Not Active | Not Active | Not Active | IC50 [6]: Not Active; Ki [6]: Not Active; IC50 (Acetylcholinesterase): Not Active; IC50 [12]: Not Active
